In patent US20230157996A1, “SMALL-MOLECULE INHIBITOR TARGETING EB VIRUS NUCLEAR ANTIGEN PROTEIN, PREPARATION METHOD AND USE THEREOF” (priority 2020, published 2023):

Tested on: C666-1 cells
Experiment: C666-1 cell viability single concentration (50 μM) inhibition rate (Resazurin)
Assay type: cell-based
Details: Homo sapiens, C6661, 72 h, 50 μM compound, 72 hours, C666-1 cells; read-out: C666-1 cell viability single concentration (50 μM) inhibition rate, Ratio* (Inh %)
Method: In order to assess the effect of the EBNA1 inhibitor at the cellular level, the cell proliferation inhibition rate was tested, and the inhibition rate of inhibitor at a specific concentration on the proliferation of Epstein-Barr virus positive cell line C666-1 was detected.
In the test, 100 μL C666-1 cells were inoculated in a transparent 96-well plate, and each well contained 5×10^3 cells. After the cells were cultured in an incubator with 5% carbon dioxide at 37° C. for 24 hours, 10 μL compound at a concentration of 500 μmol/L was added into the cells, so that the final concentration of the compound was 50 μmol/L. Two replicate wells were set for each compound, the wells treated with DMSO were set as control wells (Ctrl), and the wells with cell culture medium only were set as blank wells (blank), and they were treated in the incubator with carbon dioxide at 37° C. for 72 hours. The cell viability was assessed using a redox indicator Resazurin. Specifically, 10 μL Resazurin at a concentration of 600 umol/L was added into each well, and incubated at 37° C. for 3 hours, and a Tecan microplate reader was used to detect the fluorescence signal at an excitation wavelength of 560 nm and an emission wavelength of 590 nm. The formula inh %=1−(F−Fblank)/(FCtrl−Fblank)×100% (where, F is the fluorescence intensity of the compound-added wells, FCtrl and Fblank are the readings of the control wells and blank wells, respectively) was used to calculate the inhibition rate of the compound on the proliferation of C666-1 cells, so as to assess the activity of the compound on Epstein-Barr virus positive cells.

| Structure (SMILES) | inhibition at 50 µM |
| --- | --- |
| O=C(O)c1cccc(N2CC(Oc3ccc(CO)cc3)C2)c1-n1cccc1 [Compound 38, 3-(3-(4-(hydroxymethyl)phenoxy)azetidin-1-yl)-2-(1H-pyrrol-1-yl)benzoic acid] | < 10% |
| COC(=O)c1cccc(N2CC(Oc3ccc(CO)cc3)C2)c1-c1ccc2cc[nH]c2c1 [Compound 39, Methyl 3-(3-(4-(hydroxymethyl)phenoxy)azetidin-1-yl)-2-(1H-indol-6-yl)benzoate] | 30 to 50% |
| O=C(O)c1cccc(N2CC(Oc3ccc(CO)cc3)C2)c1-c1ccc2cc[nH]c2c1 [Compound 40, 3-(3-(4-(hydroxymethyl)phenoxy)azetidin-1-yl)-2-(1H-indol-6-yl)benzoic acid] | < 10% |
| COC(=O)c1cccc(N2CC(Oc3ccc(CO)cc3)C2)c1-c1ccccc1 [Compound 41, Methyl 6-(3-(4-(hydroxymethyl)phenoxy)azetidin-1-yl)-[1,1′-biphenyl]-2-formate] | 10 to 30% |
| O=C(O)c1cccc(N2CC(Oc3ccc(CO)cc3)C2)c1-c1ccccc1 [Compound 42] | < 10% |
| COC(=O)c1cccc(N2CC(Oc3ccc(CO)cc3)C2)c1-c1ccc2ccsc2c1 [Compound 43, Methyl 2-(benzo[b]thiophen-6-yl)-3-(3-(4-(hydroxymethyl)phenoxy)azetidin-1-yl)benzoate] | 10 to 30% |
| O=C(O)c1cccc(N2CC(Oc3ccc(CO)cc3)C2)c1-c1ccc2ccsc2c1 [Compound 44, 2-(benzo[b]thiophen-6-yl)-3-(3-(4-(hydroxymethyl)phenoxy)azetidin-1-yl)benzoic acid] | < 10% |
| COC(=O)c1cccc(N2CC(Oc3ccc(CO)cc3)C2)c1-c1ccc2nsnc2c1 [Compound 45, Methyl 2-(benzo[c][1,2,5]thiadiazol-5-yl)-3-(3-(4-(hydroxymethyl)phenoxy)azetidin-1-yl)benzoate] | 10 to 30% |
| O=C(O)c1cccc(N2CC(Oc3ccc(CO)cc3)C2)c1-c1ccc2nsnc2c1 [Compound 46] | < 10% |
| COC(=O)c1cccc(N2CC(Oc3ccc(CO)cc3)C2)c1-c1ccco1 [Compound 47] | 30 to 50% |
| COC(=O)c1cccc(N2CC(Oc3ccc(CO)cc3)C2)c1-c1ccoc1 [Compound 48] | > 50% |
| O=C(O)c1cccc(N2CC(Oc3ccc(CO)cc3)C2)c1-c1ccoc1 [Compound 49] | < 10% |
| COC(=O)c1cccc(N2CC(Oc3ccc(CO)cc3)C2)c1-c1cccc(F)c1 [Compound 50] | 10 to 30% |
| O=C(O)c1cccc(N2CC(Oc3ccc(CO)cc3)C2)c1-c1cccc(F)c1 [Compound 51] | < 10% |
| O=C(O)c1cccc(N2CC(Oc3ccc(CO)cc3)C2)c1-c1ccc2ccoc2c1 [Compound 52] | < 10% |
| COC(=O)c1cccc(N2CC(Oc3ccc(CO)cc3)C2)c1-c1cccc(Cl)c1 [Compound 53, Methyl 3′-chloro-6-(3-(4-(hydroxymethyl)phenoxy)azetidin-1-yl)-[1,1′-biphenyl]-2-formate] | 10 to 30% |
| O=C(O)c1cccc(N2CC(Oc3ccc(CO)cc3)C2)c1-c1cccc(Cl)c1 [Compound 54] | 30 to 50% |
| COC(=O)c1cccc(N2CC(Oc3ccc(CO)cc3)C2)c1-c1cccc(C#N)c1 [Compound 55] | 10 to 30% |
| O=C(O)c1cccc(-c2c(C(=O)O)cccc2N2CC(Oc3ccc(CO)cc3)C2)c1 [Compound 56] | < 10% |
| COC(=O)c1cccc(N2CC(Oc3ccc(CO)cc3)C2)c1-c1ccc(Cl)cc1 [Compound 57] | 10 to 30% |
| O=C(O)c1cccc(N2CC(Oc3ccc(CO)cc3)C2)c1-c1ccc(Cl)cc1 [Compound 58, 4′-chloro-6-(3-(4-(hydroxymethyl)phenoxy)azetidin-1-yl)-[1,1′-biphenyl]-2-formic acid] | < 10% |

| Structure (SMILES) | inhibition at 50 µM |
| --- | --- |
| COC(=O)c1cccc(N2CC(Oc3ccc(CO)cc3)C2)c1-c1cccc(C(F)(F)F)c1 [Compound 59, Methyl 3′-(trifluoromethyl)-6-(3-(4-(hydroxymethyl)phenoxy)azetidin-1-yl)-[1,1′-biphenyl]-2-formate] | 10 to 30% |
| O=C(O)c1cccc(N2CC(Oc3ccc(CO)cc3)C2)c1-c1cccc(C(F)(F)F)c1 [Compound 60, 3′-(trifluoromethyl)-6-(3-(4-(hydroxymethyl)phenoxy)azetidin-1-yl)-[1,1′-biphenyl]-2-formic acid] | < 10% |
| COC(=O)c1cccc(N2CC(Oc3ccc(CO)cc3)C2)c1-c1cc(F)cc(F)c1 [Compound 61, Methyl 3′,5′-difluoro-6-(3-(4-(hydroxymethyl)phenoxy)azetidin-1-yl)-[1,1′-biphenyl]-2-formate] | 10 to 30% |
| O=C(O)c1cccc(N2CC(Oc3ccc(CO)cc3)C2)c1-c1cc(F)cc(F)c1 [Compound 62, 3′,5′-difluoro-6-(3-(4-(hydroxymethyl)phenoxy)azetidin-1-yl)-[1,1′-biphenyl]-2-formic acid] | < 10% |
| COC(=O)c1cccc(N2CC(Oc3ccc(CO)cc3)C2)c1-c1ccc(-c2ccccc2)cc1 [Compound 63, Methyl 6-(3-(4-(hydroxymethyl)phenoxy)azetidin-1-yl)-[1,1′:4′,1″-terphenyl]-2-formate] | 10 to 30% |
| O=C(O)c1cccc(N2CC(Oc3ccc(CO)cc3)C2)c1-c1ccc(-c2ccccc2)cc1 [Compound 64, 6-(3-(4-(hydroxymethyl)phenoxy)azetidin-1-yl)-[1,1′:4′,1″-terphenyl]-2-formic acid] | > 50% |
| COC(=O)c1cccc(N2CC(Oc3ccc(CO)cc3)C2)c1-c1cccc(NS(C)(=O)=O)c1 [Compound 65, Methyl 3′-(methylsulfonamido)-6-(3-(4-(hydroxymethyl)phenoxy)azetidin-1-yl)-[1,1′-biphenyl]-2-formate] | 30 to 50% |
| COC(=O)c1cccc(N2CC(Oc3ccc(CO)cc3)C2)c1-c1cccc(OC)c1 [Compound 66, Methyl 3′-methoxy-6-(3-(4-(hydroxymethyl)phenoxy)azetidin-1-yl)-[1,1′-biphenyl]-2-formate] | 30 to 50% |
| COc1cccc(-c2c(C(=O)O)cccc2N2CC(Oc3ccc(CO)cc3)C2)c1 [Compound 67, 3′-methoxy-6-(3-(4-(hydroxymethyl)phenoxy)azetidin-1-yl)-[1,1′-biphenyl]-2-formic acid] | < 10% |
| COC(=O)c1cccc(N2CC(Oc3ccc(CO)cc3)C2)c1-c1ccc(F)c(C#N)c1 [Compound 68, Methyl 3′-cyano-4′-fluoro-6-(3-(4-(hydroxymethyl)phenoxy)azetidin-1-yl)-[1,1′-biphenyl]-2-formate] | 10 to 30% |
| COC(=O)c1cccc(N2CC(Oc3ccc(CO)cc3)C2)c1-n1cccn1 [Compound 69, Methyl 3-(3-(4-(hydroxymethyl)phenoxy)azetidin-1-yl)-2-(1H-pyrazol-1-yl)benzoate] | 10 to 30% |
| O=C(O)c1cccc(N2CC(Oc3ccc(CO)cc3)C2)c1-n1cccn1 [Compound 70, 3-(3-(4-(hydroxymethyl)phenoxy)azetidin-1-yl)-2-(1H-pyrazol-1-yl)benzoic acid] | < 10% |
| O=C(O)c1cccc(OC2CN(c3cccc(C(=O)NCc4ccccc4)c3)C2)c1 [Compound 71, 3-((1-(3-(benzylcarbamoyl)phenyl)azetidin-3-yl)oxy)benzoic acid] | < 10% |
| Nc1c(C(=O)O)cccc1N1CC(Oc2cccc(C(=O)O)c2)C1 [Compound 72, 3-(3-(3-carboxylphenoxy)azetidin-1-yl)-2-aminobenzoic acid] | < 10% |
| O=C(O)c1cccc(OC2CN(c3cccc(C(=O)O)c3-n3cccc3)C2)c1 [Compound 73, 3-(3-(3-carboxylphenoxy)azetidin-1-yl)-2-(1H-pyrrol-1-yl)benzoic acid] | < 10% |
| COC(=O)c1cccc(N2CC(Oc3ccc(COC(C)=O)cc3)C2)c1-n1cccc1 [Compound 74, Methyl 3-(3-(4-(acetoxylmethyl)phenoxy)azetidin-1-yl)-2-(1H-pyrrol-1-yl)benzoate] | < 10% |
| CCCCCCCC(=O)OCc1ccc(OC2CN(c3cccc(C(=O)OC)c3-n3cccc3)C2)cc1 [Compound 75, Methyl 3-(3-(4-((octanoyloxy)methyl)phenoxy)azetidin-1-yl)-2-(1H-pyrrol-1-yl)benzoate] | 10 to 30% |
| COC(=O)c1cccc(N2CC(Oc3ccc(CNC(C)=O)cc3)C2)c1-n1cccc1 [Compound 76, Methyl 3-(3-(4-(acetylaminomethyl)phenoxy)azetidin-1-yl)-2-(1H-pyrrol-1-yl)benzoate] | 10 to 30% |
| CC(=O)NCc1ccc(OC2CN(c3cccc(C(=O)O)c3-n3cccc3)C2)cc1 [Compound 77, 3-(3-(4-(acetylaminomethyl)phenoxy)azetidin-1-yl)-2-(1H-pyrrol-1-yl)benzoic acid] | < 10% |
| COC(=O)c1cccc(N2CC(Oc3ccc(CNS(=O)(=O)C4CC4)cc3)C2)c1-n1cccc1 [Compound 78, Methyl 3-(3-(4-(cyclopropylsulfonamidomethyl)phenoxy)azetidin-1-yl)-2-(1H-pyrrol-1-yl)benzoate] | > 50% |
